For assay [1], the target named is T1, Dimer of Gag-Pol polyprotein [489-587] (Human immunodeficiency virus 1, UniProt P12497).
T1 construct: 489-587
Put plainly: Protease Inhibition Assay. Particulars: pH 5.5; 22 °C. From the text: (§1) In the presence of HIV-l protease, the substrate is rapidly cleaved into two parts. The biotinylated amino terminal fragment binds to the avidin Pandex beads while the FITC-containing carboxy1 terminal fragment is removed through the membrane.

In assay [2] the target is T2, Gag-Pol polyprotein [489-587] (Human immunodeficiency virus 1, UniProt P04585).
T2 construct: 489-587
Put plainly: Protease Inhibition Assay.
Source text: as §1

The term IC50 denotes the point on the concentration scale where inhibition reaches its midpoint. Read a high IC50 as a need for much substance.

`CC(C)CN(C[C@@H](O)[C@H](Cc1ccccc1)NC(=O)[C@@H](CS(=O)(=O)c1ccc(F)cc1)NS(C)(=O)=O)C(=O)NC(C)(C)C` [(2S)-N-[(2S,3R)-4-[(tert-butylcarbamoyl)(2-methylpropyl)amino]-3-hydroxy-1-phenylbutan-2-yl]-3-[(4-fluorobenzene)sulfonyl]-2-methanesulfonamidopropanamide]: the IC50 in assay [1] and in assay [2] was 10 nM in each case.

Regarding `CC(C)(C)NC(=O)[C@@H]1C[C@@H]2SCC[C@@H]2CN1C[C@@H](O)[C@H](Cc1ccccc1)NC(=O)[C@@H](CS(=O)(=O)c1cccc2cccnc12)NC(=O)C(F)(F)F` [(3aR,6S,7aS)-N-tert-butyl-5-[(2R,3S)-2-hydroxy-4-phenyl-3-[(2S)-3-(quinoline-8-sulfonyl)-2-(2,2,2-trifluoroacetamido)propanamido]butyl]-octahydrothieno[3,2-c]pyridine-6-carboxamide], the IC50 in assay [1] and in assay [2] was 0.21 nM throughout.

For the molecule `CC(C)(C)NC(=O)[C@@H]1C[C@@H]2SCC[C@@H]2CN1C[C@@H](O)[C@H](CSc1ccccc1)NC(=O)[C@@H](CS(=O)(=O)c1ccc(F)cc1)NC(=O)C(F)(F)F` [(3aR,6S,7aS)-N-tert-butyl-5-[(2R,3R)-3-[(2S)-3-[(4-fluorobenzene)sulfonyl]-2-(2,2,2-trifluoroacetamido)propanamido]-2-hydroxy-4-(phenylsulfanyl)butyl]-octahydrothieno[3,2-c]pyridine-6-carboxamide], the IC50 in assay [1] and in assay [2] was 10 nM each time.

With `CC(C)(C)NC(=O)[C@@H]1C[C@@H]2CCCC[C@@H]2CN1C[C@@H](O)[C@H](Cc1ccccc1)NC(=O)[C@@H](CSc1ccc(F)cc1)NS(C)(=O)=O` [(3S,4aS,8aS)-N-tert-butyl-2-[(2R,3S)-3-[(2S)-3-[(4-fluorophenyl)sulfanyl]-2-methanesulfonamidopropanamido]-2-hydroxy-4-phenylbutyl]-decahydroisoquinoline-3-carboxamide], the concentration for half-maximal inhibition (IC50) in assay [1] and in assay [2] was 24 nM in each case.

Take `CC(=O)N[C@H](CS(=O)(=O)c1cccc2cccnc12)C(=O)N[C@@H](Cc1ccccc1)[C@H](O)CN1C[C@H]2CCS[C@H]2C[C@H]1C(=O)NC(C)(C)C` [(3aR,6S,7aS)-N-tert-butyl-5-[(2R,3S)-3-[(2S)-2-acetamido-3-(quinoline-8-sulfonyl)propanamido]-2-hydroxy-4-phenylbutyl]-octahydrothieno[3,2-c]pyridine-6-carboxamide]: the half-maximal inhibitory concentration (IC50) in assay [1] and in assay [2] was 0.42 nM in each case.

In the case of `CC(C)(C)NC(=O)[C@@H]1C[C@@H]2CCCC[C@@H]2CN1C[C@@H](O)[C@H](Cc1ccccc1)NC(=O)[C@@H](C[S+]([O-])c1ccc2ccccc2c1)NS(C)(=O)=O` (stereo not given in full), the IC50 in assay [1] and in assay [2] was 0.4 nM throughout.

`CC(C)CN(C[C@@H](O)[C@H](Cc1ccccc1)NC(=O)[C@@H](CSc1ccc2ccccc2c1)NS(C)(=O)=O)C(=O)NC(C)(C)C` [(2S)-N-[(2S,3R)-4-[(tert-butylcarbamoyl)(2-methylpropyl)amino]-3-hydroxy-1-phenylbutan-2-yl]-2-methanesulfonamido-3-(naphthalen-2-ylsulfanyl)propanamide]: the 50% inhibitory concentration (IC50) in assay [1] and in assay [2] was 50 nM in each case.

For `CC(=O)N[C@H](CS(=O)(=O)c1ccc2ccccc2c1)C(=O)N[C@@H](Cc1ccccc1)[C@H](O)CN1C[C@H]2CCCC[C@H]2C[C@H]1C(=O)NC(C)(C)C` [(3S,4aS,8aS)-N-tert-butyl-2-[(2R,3S)-3-[(2S)-2-acetamido-3-(naphthalene-2-sulfonyl)propanamido]-2-hydroxy-4-phenylbutyl]-decahydroisoquinoline-3-carboxamide], the IC50 in assay [1] and in assay [2] was 1.6 nM each time.

For the molecule `CC(=O)N[C@H](CS(=O)(=O)c1cccc2cccnc12)C(=O)N[C@@H](Cc1ccccc1)[C@H](O)CN1C[C@H]2CCCC[C@H]2C[C@H]1C(=O)NC(C)(C)C` [(3S,4aS,8aS)-N-tert-butyl-2-[(2R,3S)-3-[(2S)-2-acetamido-3-(quinoline-8-sulfonyl)propanamido]-2-hydroxy-4-phenylbutyl]-decahydroisoquinoline-3-carboxamide], the half-maximal inhibitory concentration (IC50) in assay [1] and in assay [2] was 1.7 nM each time.

In the case of `CC(C)(C)NC(=O)[C@@H]1C[C@@H]2SCC[C@@H]2CN1C[C@@H](O)[C@H](Cc1ccccc1)NC(=O)[C@@H](CS(=O)(=O)c1cccc2cccnc12)NS(C)(=O)=O` [(3aR,6S,7aS)-N-tert-butyl-5-[(2R,3S)-2-hydroxy-3-[(2S)-2-methanesulfonamido-3-(quinoline-8-sulfonyl)propanamido]-4-phenylbutyl]-octahydrothieno[3,2-c]pyridine-6-carboxamide], the IC50 in assay [1] and in assay [2] was 0.71 nM throughout.

For `CC(C)(C)NC(=O)[C@@H]1C[C@@H]2CCCC[C@@H]2CN1C[C@@H](O)[C@H](Cc1ccccc1)NC(=O)[C@@H](CSc1ccc2ccccc2c1)NS(C)(=O)=O` [(3S,4aS,8aS)-N-tert-butyl-2-[(2R,3S)-2-hydroxy-3-[(2S)-2-methanesulfonamido-3-(naphthalen-2-ylsulfanyl)propanamido]-4-phenylbutyl]-decahydroisoquinoline-3-carboxamide], the IC50 in assay [1] and in assay [2] was 5.1 nM each time.

Take `CC(C)CN(C[C@@H](O)[C@H](Cc1ccccc1)NC(=O)[C@@H](CSc1ccc(F)cc1)NS(C)(=O)=O)C(=O)NC(C)(C)C` [(2S)-N-[(2S,3R)-4-[(tert-butylcarbamoyl)(2-methylpropyl)amino]-3-hydroxy-1-phenylbutan-2-yl]-3-[(4-fluorophenyl)sulfanyl]-2-methanesulfonamidopropanamide]: the IC50 in assay [1] and in assay [2] was 85 nM each time.

With `CC(=O)N[C@H](CSCc1ccccc1)C(=O)N[C@@H](Cc1ccccc1)[C@H](O)CN1C[C@H]2CCCC[C@H]2C[C@H]1C(=O)NC(C)(C)C` [(3S,4aS,8aS)-2-[(2R,3S)-3-[(2S)-3-(benzylsulfanyl)-2-acetamidopropanamido]-2-hydroxy-4-phenylbutyl]-N-tert-butyl-decahydroisoquinoline-3-carboxamide], the IC50 in assay [1] and in assay [2] was 6 nM each time.

For the molecule `CC(=O)N[C@H](CS(=O)(=O)c1ccc(F)cc1)C(=O)N[C@@H](CSc1ccccc1)[C@H](O)CN1C[C@H]2CCS[C@H]2C[C@H]1C(=O)NC(C)(C)C` [(3aR,6S,7aS)-N-tert-butyl-5-[(2R,3R)-3-[(2S)-2-acetamido-3-[(4-fluorobenzene)sulfonyl]propanamido]-2-hydroxy-4-(phenylsulfanyl)butyl]-octahydrothieno[3,2-c]pyridine-6-carboxamide], the concentration for half-maximal inhibition (IC50) in assay [1] and in assay [2] was 1.8 nM in each case.

`CC(C)(C)NC(=O)[C@@H]1C[C@@H]2CCCC[C@@H]2CN1C[C@@H](O)[C@H](Cc1ccccc1)NC(=O)[C@@H](CS(=O)(=O)c1ccc(F)cc1)NS(C)(=O)=O` [Saquinavir/Nelfinavir deriv.]: the IC50 in assay [1] and in assay [2] was 2 nM throughout.

(Values after BindingDB's records for doi:10.7270/Q22F7KMG (Eli Lilly, 1995).)
